From ChEMBL document CHEMBL3132764, “-Aminophosphonates as novel anti-leishmanial chemotypes: synthesis, biological evaluation, and CoMFA studies” (Medchemcomm, 2014) come the findings set out here.

Molecules are shown by their SMILES.

Data set [1] is described as follows: Selectivity index, ratio of CC50 for mouse J774A1 cells to IC50 for promastigote stage of wild type Leishmania donovani MHOM/80/IN/Dd8. The data set is classed as functional, J774.A1.
Data set [2] deals with Leishmania donovani. The data set is described as follows: Antileishmanial activity against promastigote stage of wild type Leishmania donovani MHOM/80/IN/Dd8 after 48 hrs by MTT assay. The data set is classed as functional, organism-based. The note with it: MHOM/80/IN/Dd8, 48 h.
Data set [3] is described as follows: Cytotoxicity against mouse J774A1 cells after 48 hrs by MTT assay. The data set is classed as cell-based, J774.A1.
Data set [4] in a line: Half life in human. The data set is classed as ADME, organism-based. The note with it: in vivo.

For the compound `COP(=O)(OC)C1(Nc2ccccc2)CCCCC1`, the “Ratio CC50/IC50” value in data set [1] is 0.46. Further, the IC50 in data set [2] (read-out: IC50) is 16.4 µM; in data set [2] (read-out: pIC50 (converted)) it was 16.2 µM. Also, the CC50 at 48 h in data set [3] is 7.5 µM.
For `COP(=O)(OC)C(Nc1ccccc1)c1ccccc1` (racemic) the same measures were 0.93, 13.5 µM, 13.5 µM and 12.5 µM.
In the case of `COP(=O)(OC)C(Nc1ccccc1)C1CCCCC1` (racemic), in data set [2] (read-out: IC50), the IC50 is greater than 100 µM. Further, in data set [3], the half-maximal cytotoxic concentration (CC50) at 48 h came out at 14 µM.
The like results for `COP(=O)(OC)C(Nc1ccccc1)c1ccc(N(C)C)cc1` (racemic) were, in that order, greater than 100 µM and 5 µM.
As to `COP(=O)(OC)C(Nc1ccccc1)c1cccc(O)c1` (racemic), the IC50 in data set [2] (read-out: IC50) is greater than 100 µM. The CC50 at 48 h in data set [3] is greater than 100 µM.
Turning to `COc1ccc(C(Nc2cc(C)on2)P(=O)(OC)OC)cc1` (racemic), the “Ratio CC50/IC50” value in data set [1] worked out at 0.94. Also, the figures for the IC50 in data set [2] (read-out: IC50) and in data set [2] (read-out: pIC50 (converted)) were 8 µM and 7.94 µM, respectively. This compound also came in with a CC50 at 48 h in data set [3] of 7.5 µM.
For `COc1ccc(C(Nc2nc3c(C)cccc3s2)P(=O)(OC)OC)cc1` (racemic) the same measures were 0.97, 8.75 µM, 8.71 µM and 8.5 µM.
For `COP(=O)(OC)C(Nc1ccccc1)c1ccc([N+](=O)[O-])cc1` (racemic) the same measures were 0.56, 8.95 µM, 8.91 µM and 5 µM.
For `COP(=O)(OC)C(Nc1ccccc1)c1ccccc1O` (racemic) the same measures were 0.56, 8.95 µM, 8.91 µM and 5 µM.
`COc1ccc(C(Nc2ccccc2)P(=O)(OC)OC)cc1O` (racemic): the “Ratio CC50/IC50” value in data set [1] is 3.18. The IC50 was 9.75 µM in data set [2] (read-out: IC50) and 9.77 µM in data set [2] (read-out: pIC50 (converted)). Also, in data set [3], the CC50 at 48 h stood at 31 µM.
The like results for `COP(=O)(OC)C(C)(Nc1ccccc1)c1ccccc1` (racemic) were, in that order, 0.44, 13.5 µM, 13.5 µM and 6 µM.
In the case of `COc1cc(C(Nc2ccccc2)P(=O)(OC)OC)cc(OC)c1O` (racemic), the “Ratio CC50/IC50” value in data set [1] is reported as 0.74. Besides, the IC50 in data set [2] (read-out: IC50) and in data set [2] (read-out: pIC50 (converted)) was 13.5 µM in each case. For the same compound, the CC50 at 48 h in data set [3] was found to be 10 µM.
As to `COP(=O)(OC)C(/C=C/c1ccccc1)Nc1ccccc1` (racemic), the “Ratio CC50/IC50” value in data set [1] is 0.46. For the same compound, the IC50 in data set [2] (read-out: IC50) was 17.5 µM; in data set [2] (read-out: pIC50 (converted)), 17.4 µM. This compound also registered a CC50 at 48 h in data set [3] of 8 µM.
The like results for `COc1ccccc1C(Nc1ccccc1)P(=O)(OC)OC` (racemic) were, in that order, 0.33, 18 µM, 18.2 µM and 6 µM.
In the case of `COc1ccc(C(Nc2nc3c(Cl)cccc3s2)P(=O)(OC)OC)cc1` (racemic), the IC50 in data set [2] (read-out: IC50) is 22 µM; in data set [2] (read-out: pIC50 (converted)), 21.9 µM.
Regarding `COP(=O)(OC)C(Nc1ccccc1)c1ccccc1Br` (racemic), in data set [1], the “Ratio CC50/IC50” value was determined as 0.24. For the same compound, the IC50 was 22.5 µM in data set [2] (read-out: IC50) and 22.4 µM in data set [2] (read-out: pIC50 (converted)). In data set [3], this compound displayed a CC50 at 48 h of 5.5 µM.
Take `COP(=O)(OC)C(Nc1ccccc1)c1ccccc1F` (racemic): in data set [1], the “Ratio CC50/IC50” value worked out at 0.5. For the same compound, the IC50 in data set [2] (read-out: IC50) and in data set [2] (read-out: pIC50 (converted)) was 24 µM in each case. The same compound came in with a CC50 at 48 h in data set [3] of 12 µM.
Turning to `COc1ccc(C(Nc2ccccc2)P(=O)(OC)OC)cc1` (racemic), the “Ratio CC50/IC50” value in data set [1] was found to be 0.22. Besides, the IC50 in data set [2] (read-out: IC50) was 25 µM; in data set [2] (read-out: pIC50 (converted)), 25.1 µM. In data set [3], this compound displayed a CC50 at 48 h of 5.5 µM.
For the compound `COP(=O)(OC)C(Nc1cc(C)on1)c1ccccc1` (racemic), the values for the IC50 in data set [2] (read-out: IC50) and in data set [2] (read-out: pIC50 (converted)) were 30 µM and 30.2 µM, respectively.
Turning to `COP(=O)(OC)C(Nc1ccccc1)c1ccc(Cl)cc1` (racemic), the “Ratio CC50/IC50” value in data set [1] was 1.08. Besides, the IC50 is 36 µM in data set [2] (read-out: IC50) and 36.3 µM in data set [2] (read-out: pIC50 (converted)). Also, half-maximal cytotoxicity in data set [3] (CC50 at 48 h) was put at 39 µM.
For `COP(=O)(OC)C(Nc1ccccc1)c1ccc(Br)cc1` (racemic) the same measures were 0.17, 39 µM, 38.9 µM and 6.5 µM.
Regarding `COP(=O)(OC)C(Nc1ccccc1)c1cccc2ccccc12` (racemic), the IC50 in data set [2] (read-out: IC50) was 56 µM; in data set [2] (read-out: pIC50 (converted)) it was 56.2 µM. Moreover, in data set [3], the CC50 at 48 h was greater than 100 µM.
Consider `COP(=O)(OC)C(Nc1ccccc1)c1ccccn1` (racemic), for which the “Ratio CC50/IC50” value in data set [1] is given as 0.06. In addition, the IC50 is 90 µM in data set [2] (read-out: IC50) and 89.1 µM in data set [2] (read-out: pIC50 (converted)). For the same compound, in data set [3], the CC50 at 48 h came out at 5 µM.
The like results for `COP(=O)(OC)C(Nc1ccccc1)c1ccc2ccccc2c1` (racemic) were, in that order, 0.07, 91.5 µM, 91.2 µM and 6.1 µM.
The like results for `COc1cc(C(Nc2ccccc2)P(=O)(OC)OC)ccc1O` (racemic) were, in that order, 0.7, 7.1 µM, 7.08 µM and 5 µM.
For `COP(=O)(OC)C(Nc1ccccc1)c1ccc(O)cc1` (racemic) the same measures were 0.81, 8 µM, 7.94 µM and 6.5 µM.
`C[C@@H]1[C@H](O)[C@@H](C)/C=C/C=C/C=C/C=C/C=C/C=C/C=C/[C@H](O[C@@H]2O[C@H](C)[C@@H](O)[C@H](N)[C@@H]2O)C[C@@H]2O[C@](O)(C[C@@H](O)C[C@@H](O)[C@H](O)CC[C@@H](O)C[C@@H](O)CC(=O)O[C@H]1C)C[C@H](O)[C@H]2C(=O)O` [AMPHOTERICIN B]: in data set [1], the “Ratio CC50/IC50” value came out at 17.28. The IC50 in data set [2] (read-out: IC50) worked out at 0.405 µM. In data set [3], this compound displayed a CC50 at 48 h of 7 µM.
`CCCCCCCCCCCCCCCCOP(=O)([O-])OCC[N+](C)(C)C` [MILTEFOSINE] gave a half-life in data set [4] of 144 h.
